This is an account of results in patent publication US8420638B2, “Triheterocyclic compounds and compositions thereof” (Gemin X Pharmaceuticals Canada Inc., priority 2003, dated 2013).

The structures appear in SMILES notation. Where a name gives a salt, the structure may show the parent alone.

A short description of data set [1]: Body weight and deaths of tumor-bearing SCID mice under treatment. Type of data set: in vivo, CB17 SCID/SCID mice. The settings on record: for change in body weight: 4.5 mg/kg IV once daily for five days, FIG. 2. Here is the method: (§1) There were three treatment groups of ten mice each: (a) a negative control group, (b) a positive control group and (c) a group treated with Compound 1 Tartrate.
(§2) Treatments started on day fourteen after C33A cells transplantation. Compound 1 Tartrate was administered IV once daily for five consecutive days at a dose of 4.5 mg/kg. Compound 1 Tartrate was prepared fresh daily in a vehicle solution of 5% Dextrose (Abbot Laboratories, QC, Canada) and 2% polysorbate 20 (Sigma, St. Louis, Mo., USA). The negative control group was treated with vehicle alone. The injection volume for both Compound 1 Tartrate group and the negative control group was 150 μl.
(§3) Observation continued for 40 days after initial tumor implantation.

The nature of data set [2]: Solubility (0.2 μM filtration, LC/MS). The format is physicochemical.
Description: To determine whether a compound is soluble in a solution, the solution was filtered on 0.2 μM polytetrafluoroethylene filters (Whatman Inc. Clifton, N.J., USA) and the compound concentration in the filtrate was measured by LC/MS and compared to the expected concentration.
The column used was XTerra MS C18: 50×2.1 mm, 3.5 mm column at 20° C. Samples were injected and separated under the following conditions: The mobile phase “A” consisted of 5 mM ammonium formate, 0.1% formic acid in water and mobile phase “B” consisted of 5 mM ammonium formate, 0.1% formic acid in methanol. […] The Mass Spectrometer system consisted of a Waters ZQ2000 single quadrupole mass spectrometer (Waters, Milford, Mass., USA) equipped with an Electrospray Ionization Source (ES). The mass detector was operated in positive ion mode (ES+) and Selected Ion Recording mode (SIR). Compounds were detected at m/z equal to their respective molecular weight plus 1.
Data set [3] concerns C33A human cervical cancer cells. Briefly: Growth of C33A cervical tumors in SCID mice. Type of data set: in vivo, CB17 SCID/SCID mice. Here is the method:
as §1, §2, §3

For data set [4], the system named is cancer cell lines H1299 and C33A; normal cell lines HMEC and MRC-5. Briefly: ATP levels in cancer versus normal cell lines (FIG. 1). The format is cell-based. The settings on record: 72 hours after treatment with 0.5 μM. The method, then:
One day after plating, the cells were treated with various concentrations of Compound 1 Tartrate. Stock solutions of the Compound 1 Tartrate were prepared in dimethyl sulfoxide (Sigma-Aldrich Inc., St. Louis, Mo., USA), diluted in the recommended media and then added to the cells. The total dimethyl sulfoxide on the cells was 1%. […] The results were plotted relative to untreated control cells, which were set at a value of 100.

The nature of data set [5]: Shelf stability (precipitation) of the formulated compound. Type of data set: physicochemical. The conditions noted are these: 0.6 mg/mL in 9.6% polyethylene glycol 300, 0.4% polysorbate 20 and 5% dextrose. The method, then: Compound 1 Tartrate salt solubility is equal to 0.1 mg/mL. […] This increase in solubility has a positive impact on the shelf stability of formulated Compound 1.

For data set [6], the system named is calf intestinal alkaline phosphatase. In words: Conversion of phosphate pro-drug by calf intestinal alkaline phosphatase in vitro. Type of data set: in vitro ADME. The settings on record: 15 μM, 0.02 U/100 μL enzyme, pH 7.4, 30-120 minutes; FIG. 5. The method, then: (§4) The conversion into biologically active drug of phosphate pro-drugs by calf intestinal alkaline phosphatase and human placental alkaline phosphatase was measured in vitro using purified enzymes. Purified calf intestinal alkaline phosphatase (Roche Diagnostic Inc. Laval, Quebec, Canada) or human placental alkaline phosphatase (Sigma-Aldrich Canada Ltd. Oakville, Ontario, Canada) was added at a concentration of 0.02 U/100 μL to a solution containing 15 μM of Compound 66, 20 mM Tris-HCl, pH 7.4 and 0.9% NaCl. The solutions were incubated for 30, 60 or 120 minutes. A solution containing 15 μM of Compound 66, 20 mM Tris-HCl, pH 7.4 and 0.9% NaCl was used as a reference (time=0 minutes). To each solution, an equal volume (100 μL) of ice-cold acetonitrile was added, and then the mixture was vortexed and transferred to glass vials. A standard concentration curve of the pro-drug and the drug was prepared in 10 mM Tris-HCl, pH 7.4, 0.45% NaCl and 50% acetonitrile. All samples were immediately analyzed by LC/MS.

The target of data set [7] is T1, human placental alkaline phosphatase (Homo sapiens, UniProt P05187).
T1 construct: purchased Sigma-Aldrich Canada Ltd
T1 sequence (P05187 23-506): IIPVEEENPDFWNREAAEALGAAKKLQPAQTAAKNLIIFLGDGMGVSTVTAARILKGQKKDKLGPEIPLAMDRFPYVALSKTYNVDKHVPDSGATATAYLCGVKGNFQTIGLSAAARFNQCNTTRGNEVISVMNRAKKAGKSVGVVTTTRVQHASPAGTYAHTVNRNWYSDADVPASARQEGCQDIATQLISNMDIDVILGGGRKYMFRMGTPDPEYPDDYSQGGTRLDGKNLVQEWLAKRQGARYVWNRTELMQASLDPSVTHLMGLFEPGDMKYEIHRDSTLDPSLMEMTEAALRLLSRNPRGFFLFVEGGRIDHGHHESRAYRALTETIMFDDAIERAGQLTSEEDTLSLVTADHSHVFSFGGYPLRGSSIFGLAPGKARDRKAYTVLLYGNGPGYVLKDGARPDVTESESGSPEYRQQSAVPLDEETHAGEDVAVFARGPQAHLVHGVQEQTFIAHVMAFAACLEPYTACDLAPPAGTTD
In words: Conversion of phosphate pro-drug by human placental alkaline phosphatase in vitro. The format is in vitro ADME. The settings on record: 15 μM, 0.02 U/100 μL enzyme, pH 7.4, 30-120 minutes; FIG. 4. The method, then: as §4

Data set [8] has as its system human prostatic adenocarcinoma cancer PC3 cells. Briefly: Growth of PC3 prostatic tumors in SCID mice. The format is in vivo. The conditions noted are these: 5 consecutive intravenous injections; 4.84 μMoles/Kg (Compound 1 Mesylate Salt), 4.84 or 14.51 μMoles/Kg (Compound 66); FIG. 6. Here is the method: The human prostatic adenocarcinoma cancer PC3 cells were purchased from the American Type Culture Collection (ATCC). These cells were confirmed to be free of mycoplasma infection. Cells were maintained in the Roswell Park Memorial Institute (RPMI), supplemented with 10% inactivated fetal bovine serum and 1% penicillin-streptomycin-L-Glutamine, under 5% carbon dioxide (CO2) at 37° C. For prostatic-tumor induction, cells were grown lower than 70% confluence in complete medium and then collected with trypsin (Bio Whittaker, Rockland, Me., USA). Cells were then centrifuged and washed 2 times in phosphate buffer solution (PBS) and resuspended in PBS at 1.5×10^6 cells/0.1 mL. PC3 cells were then transplanted subcutaneously into the flank of SCID mice (Charles River Laboratories, Wilmington, Mass., USA), as a suspension of tumor cells (1.5×10^6 cells in 100 μL PBS), under a laminar airflow hood. Eleven (11) days later, the size of each tumor was measured. […] Relative tumor size and volume was calculated as follows: length (cm)×[width (cm)]^2/2. […]

Consider `N.N.[Cl][Pt][Cl]` [cisplatin], for which the “deaths in the group” value in data set [1] (days 29 and 32, 4 mg/kg IP, group of ten mice) is listed as “Two mice died”. For the same compound, the “body weight lost by the mouse that died” value in data set [1] (mouse that died on day 29, 4 mg/kg IP) is 2.2 g; in data set [1] (mouse that died on day 32, 4 mg/kg IP), 7 g.

As to `COC1=CC(c2cc3ccccc3[nH]2)=N/C1=C\c1[nH]c(C)cc1C` [Compound 1], the “solubility in water (in words)” value in data set [2] (water) is recorded as “poorly soluble in water”.

One may read the solubility as the concentration that dissolves in the medium under given conditions. As for `COC1=CC(c2cc3ccccc3[nH]2)=N/C1=C\c1[nH]c(C)cc1C` [Compound 1 tartrate], the “change in body weight” value in data set [1] was “no significant changes in body weight”; in data set [1] (listed as Compound 1 Tartrate), “non-significant weight loss”. Also, in data set [3] (4.5 mg/kg IV once a day for five days, FIG. 3), the “reduction in tumor growth compared to vehicle” value is reported as “statistically significant (p<0.0001) reduction in tumor growth”. Further, the “average tumor size compared to vehicle” value in data set [3] (days 36 and 39, 4.5 mg/kg) is “significantly (p<0.001) smaller tumors on average”. The solubility in data set [2] (water (stated for Compound 66), filtrate of 0.2 μM filter by LC/MS, listed as Compound 1 Tartrate salt) turned out to be 100 µg/mL. Also, the “effect on ATP levels in cancer cells versus normal cells” value in data set [4] was “significantly more effective at lowering ATP levels in the cancer cell lines H1299 and C33A compared with the ATP levels in normal cell lines HMEC and MRC-5”. Moreover, the “precipitation of the formulation” value in data set [5] (listed as Compound 1 Tartrate Salt) is given as “tends to precipitate one hour after its preparation”.

As to `COC1=CC(c2cc3ccccc3n2C(=O)CC(C)(C)c2c(C)cccc2OP(=O)(O)O)=N/C1=C/c1[nH]c(C)cc1C` [Compound 66], the “conversion of pro-drug into Compound 1” value in data set [6] and in data set [7] was “convert a fraction of the pro-drug Compound 66 present in solution into the drug Compound 1 within two hours” each time. Besides, the “growth of prostatic tumors” value in data set [8] was “significantly reduce the growth of prostatic tumors in mice”.

`COC1=CC(c2cc3ccccc3[nH]2)=N/C1=C\c1[nH]c(C)cc1C` [Compound 1 Mesylate Salt]: the “precipitation of the formulation” value in data set [5] was “shows no evidence of precipitation 72 hours after its preparation”. In addition, in data set [8], the “growth of prostatic tumors” value was “significantly reduce the growth of prostatic tumors in mice”.
